According to patent US7355047B2, “Substituted quinolone carboxylic acids, their derivatives, site of action, and uses thereof” (The Regents of the University of California, priority 2002, dated 2008):

What was measured:
[1] = system: GABAA receptor complex (GRC); experiment: [35S]TBPS binding assay, rat cortex; settings: 2 nM [35S]TBPS
[2] = system: GABAA receptor complex (GRC); experiment: [35S]TBPS binding dissociation, mouse forebrain; settings: 2 nM [35S]TBPS
BZ receptors = experiment: [3H]Flunitrazepam binding, rat cortex; settings: 0.2 nM [3H]flunitrazepam, FIG. 6
Procedure: [^3H]Flunitrazepam binding: assays were carried out under identical conditions, using an identical tissue preparation, as those used in the [^35S]TBPS binding assays with the exception that 1 μM GABA was added to all samples instead of 5 μM GABA. [^3H]Flunitrazepam, 0.2 nM (75 Ci/mmol, New England Nuclear, Boston, Mass.) was used to label BZ sites. Non-specific binding is defined as binding in the presence of 1 μM clonazepam. The data were evaluated by nonlinear regression to obtain IC50 and EC50 values.

[3] = target: T1, human GABAA receptors containing α1β2γ2 subunits (Homo sapiens, UniProt P14867+P18507+P47870); experiment: Electrophysiology Assay 2, GABAA subunit transfected HEK cells (α1β2γ2); type: cell-based; settings: expressed human α1β2γ2 receptors; versus diazepam; FIG. 2
T1 construct: expressed in transfected cells; host or cells: HEK cells
Procedure: (§1) GABAA subunit transfected HEK cells are maintained at 37° C. and 5% CO2 using Dulbecco's Modified Eagle's Medium with L-glutamine and no sodium pyruvate (Irvine Scientific #9031, Irvine Calif.) and supplemented with 10% fetal bovine serum (Irvine Scientific #3000), 10 U/ml hygromycin B (Calbiochem #400051), and an antibiotic cocktail consisting of 100 μg/ml streptomycin sulfate, 0.25 μg/ml amphotericin B, 100 units/ml penicillin G (Gibco 15240-096, Gaithersburg Md.). Cells are passed by 2× wash with phosphate buffered saline (PBS) pH 7.4 and lifted using 1× trypsin/EDTA solution in PBS (0.5 mg/ml trypsin, 0.2 mg/ml EDTA, Irvine Scientific #9342) when confluency reaches ˜90%.
(§2) GABAA subunit transfected HEK cells are grown to ˜70% confluency on slide. Cells are transferred to a bath that is continuously perfused with extracellular saline. The extracellular medium contained 145 mM NaCl, 3 mM KCl, 1.5 mM CaCl2, 1 mM MgCl2, 5.5 mM d-glucose, and 10 mM HEPES, pH 7.4 at an osmolarity of 320-330 mosM. Recordings are performed at room temperature using the whole cell patch clamp technique. The patch pipette solution contained 147 mM N-methyl-D-glucamine hydrochloride, 5 mM CsCl, 5 mM K2ATP, 5 mM HEPES, 1 mM MgCl2, 0.1 mM CaCl2, and 1.1 mM EGTA, pH 7.2, at an osmolarity of 315 mosM. Pipette-to-bath resistance is typically 3-5 Mohms. […]

[4] = target: T2, human GABAA receptors containing α2β2γ2 subunits (Homo sapiens, UniProt P18507+P47869+P47870); experiment: Electrophysiology Assay 2, GABAA subunit transfected HEK cells (α2β2γ2); type: cell-based; settings: expressed human α2β2γ2 receptors; versus diazepam; FIG. 2
T2 construct: expressed in transfected cells; host or cells: HEK cells
Procedure: as §1, §2

24 hour thirsted rats = experiment: Vogel Model of Anxiety (Vogel Conflict); type: in vivo, rat; settings: compared with Diazepam (DZP), FIG. 4
Procedure: Adult male rats are randomly divided into groups of 6 rats/group. Animals were deprived of water overnight (24 hr). Food was freely available at time of thirsting. Thirty minutes after injection (i.p.) of test drug, positive control drug (diazepam, 1 mg/kg), or vehicle control rats are placed in a square Plexiglas box containing a stainless steel bottom connected to one side of a drinkometer circuit. At the other side of the drinkometer circuit a water bottle, placed so the drink tube extends into the Plexiglas box, is connected. When a subject drinks from the bottle the circuit is closed and an electric shock is delivered at the tube after seven licks are recorded. The number of licks in a 3 min session is recorded. Anti-anxiety agents will increase the number of shocks the animal is willing to endure to acquire water.

Male NSA mice = experiment: Mouse Light-Dark Transition Model of Anxiety; type: in vivo; settings: compared with Diazepam (DZP), FIG. 3
Procedure: Male NSA mice (25-30 g) are used. The apparatus consists of an open-topped box divided into small and large area by a partition that has a hole at floor level. The small compartment is painted black and the large compartment white. The white compartment was illuminated with light and the black compartment with red light. The time spent in the light versus dark compartments and the number of transitions between compartments is recorded during a 5 min test session. Vehicle or test compounds are administered 30 min prior to the test. Diazepam is administered (i.p.) at 2 mg/kg as the positive control. Anti-anxiety agents will reduce the time the animals will spend in the dark compartment and increase the number of transitions between the two compartments.

[5] = absence or presence of 3 μM and 10 μM (+)-bicuculline, FIG. 5

T1 sequence (P14867 28-456): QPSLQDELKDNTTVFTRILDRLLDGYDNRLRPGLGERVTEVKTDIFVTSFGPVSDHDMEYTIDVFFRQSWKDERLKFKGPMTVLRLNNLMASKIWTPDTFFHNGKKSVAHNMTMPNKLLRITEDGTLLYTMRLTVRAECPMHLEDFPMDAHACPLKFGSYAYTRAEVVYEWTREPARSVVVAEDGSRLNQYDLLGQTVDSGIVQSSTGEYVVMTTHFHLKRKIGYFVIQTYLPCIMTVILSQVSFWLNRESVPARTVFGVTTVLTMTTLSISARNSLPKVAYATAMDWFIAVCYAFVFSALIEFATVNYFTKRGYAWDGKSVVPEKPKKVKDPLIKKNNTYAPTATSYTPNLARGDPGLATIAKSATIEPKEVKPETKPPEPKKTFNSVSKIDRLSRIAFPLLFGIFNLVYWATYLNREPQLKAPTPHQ
T1 sequence (P47870 25-512 limits assumed): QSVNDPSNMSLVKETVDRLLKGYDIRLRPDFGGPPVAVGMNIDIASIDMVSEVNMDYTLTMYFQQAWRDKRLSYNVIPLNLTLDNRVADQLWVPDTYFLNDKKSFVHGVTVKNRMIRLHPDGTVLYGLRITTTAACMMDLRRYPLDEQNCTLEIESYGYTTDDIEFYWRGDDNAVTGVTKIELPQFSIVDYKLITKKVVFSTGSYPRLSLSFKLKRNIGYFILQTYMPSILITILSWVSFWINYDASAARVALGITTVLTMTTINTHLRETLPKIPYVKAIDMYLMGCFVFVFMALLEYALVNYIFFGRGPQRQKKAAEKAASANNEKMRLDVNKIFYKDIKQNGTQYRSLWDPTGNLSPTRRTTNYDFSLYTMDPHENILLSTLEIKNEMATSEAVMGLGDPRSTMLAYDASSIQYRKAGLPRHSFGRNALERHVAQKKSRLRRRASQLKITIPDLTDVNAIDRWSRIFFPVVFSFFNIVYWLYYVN
T1 sequence (P18507 40-475): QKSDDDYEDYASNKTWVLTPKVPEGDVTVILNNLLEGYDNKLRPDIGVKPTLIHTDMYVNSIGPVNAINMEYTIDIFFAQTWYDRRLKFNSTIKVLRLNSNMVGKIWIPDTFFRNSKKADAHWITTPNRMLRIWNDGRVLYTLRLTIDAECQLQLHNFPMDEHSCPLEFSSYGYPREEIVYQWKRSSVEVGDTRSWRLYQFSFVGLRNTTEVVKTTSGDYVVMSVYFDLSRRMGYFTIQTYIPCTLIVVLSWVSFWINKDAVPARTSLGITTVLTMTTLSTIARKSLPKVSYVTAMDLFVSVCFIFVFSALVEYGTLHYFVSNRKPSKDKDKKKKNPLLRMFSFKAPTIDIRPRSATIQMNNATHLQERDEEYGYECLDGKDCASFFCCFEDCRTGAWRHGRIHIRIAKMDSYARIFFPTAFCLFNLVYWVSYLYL
T2 sequence (P47869 29-451): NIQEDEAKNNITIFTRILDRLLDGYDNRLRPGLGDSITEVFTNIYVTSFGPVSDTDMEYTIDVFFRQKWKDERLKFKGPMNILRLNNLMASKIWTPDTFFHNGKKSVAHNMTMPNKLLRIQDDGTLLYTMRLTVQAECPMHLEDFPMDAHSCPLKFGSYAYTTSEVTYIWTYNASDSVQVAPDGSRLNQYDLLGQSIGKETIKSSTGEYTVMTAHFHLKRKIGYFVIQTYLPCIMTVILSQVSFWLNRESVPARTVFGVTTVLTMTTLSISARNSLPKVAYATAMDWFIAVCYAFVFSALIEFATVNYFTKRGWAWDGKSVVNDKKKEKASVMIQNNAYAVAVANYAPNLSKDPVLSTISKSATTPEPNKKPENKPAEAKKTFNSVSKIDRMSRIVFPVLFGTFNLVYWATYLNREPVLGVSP
T2 sequence (P47870 25-512 limits assumed): as the sequence (P47870 25-512 limits assumed) above
T2 sequence (P18507 40-475): as the sequence (P18507 40-475) above

## CCn1cc(C(=O)O)c(=O)c2cc(NC3CCCc4ccccc43)c(Cl)cc21 (stereo not shown) [compound 3, 7-chloro-1-ethyl-6-(1,2,3,4-tetrahydronaphthyl-1-amino)-4-oxo-1,4-dihydroquinoline-3-carboxylic acid]
[1]; 10 μM compound 3 or 100 nM 3α,5α-P, rat cortex, FIG. 8
  interaction with 5α,20α-diol inhibition of [35S]TBPS binding (neurosteroid site): does not act directly on the neurosteroid site of the GRC
[1]; 30 μM and 100 μM norfloxacin, rat cortex, FIG. 9
  effect on [35S]TBPS binding in absence or presence of norfloxacin: does not act directly at the same site as the antibacterial quinolone norfloxacin
[1]; 0.3, 1 and 30 μM Ro5-4864, rat cortex, FIG. 11
  effect on [35S]TBPS binding in absence or presence of Ro5-4864 (4′-chlorodiazepam): does not act directly at the same site as 4′-chlorodiazepam
[1]; [5]
  dependence on GABA of the effect on [35S]TBPS binding: absolute dependence of compound 3 on GABA for efficacy
  site of action relative to the [35S]TBPS site: allosterically coupled to and does not act directly on the [^35S]TBPS site
[1]; initiated by 10 μM compound 3, 30 μM pentobarbital, rat cortex, FIG. 10
  dissociation of [35S]TBPS binding in absence or presence of pentobarbital: do not share a common site of action
[2]; initiated by 10 μM compound 3, 10 μM ivermectin, FIG. 12
  dissociation of [35S]TBPS binding in absence or presence of ivermectin: do not share a common site of action
[2]; initiated by 10 μM compound 3, 10 μM mefenamic acid, FIG. 13
  dissociation of [35S]TBPS binding in absence or presence of mefenamic acid: do not share a common site of action
BZ receptors
  effect on [3H]flunitrazepam binding to BZ receptors: allosterically coupled to and does not act directly on the BZ receptor
[3]
  efficacy on GABA induced currents (IGABA): dose-dependent positive efficacy
[4]
  efficacy on GABA induced currents (IGABA): dose-dependent positive efficacy
24 hour thirsted rats
  anti-anxiety effects, punished responding (number of licks during a 3 minute period): comparable to that of DZP
Male NSA mice
  anti-anxiety effects, time spent in the dark: comparable to that of DZP
